These are literature values, as cited in patent US11339174B2, “γ-spiroketal-γ-lactones and pharmaceutical composition containing same and process for preparation thereof” (Council of Scientific and Industrial Research, priority 2017, dated 2022).

≈ marks a conversion by molar mass, not a printed value.

One data set has as its system HL-60. The following applies: anticancer.

In the case of `C[C@H]1O[C@@H]2C[C@]3(C=CC(=O)O3)O[C@@H]2[C@H]1O` [pyrenolide D], the “IC50 against HL-60” value with HL-60 is 4 µg/mL (≈ 18.9 µM).
massarinoline A: the “activity against Bacillus subtilis” value in the data set on Bacillus subtilis is “active”. The “activity against Staphylococcus aureus” value in the data set with Staphylococcus aureus is listed as “active”.
